The subject of the experiment is Tcf4^+/− mice. Kind of experiment: Open field (hypoactivity, distance travelled). Format: in vivo, mouse. Details: key to Open Field (Hypoactivity): Tukey’s Multiple Comparison Test Summary: **** = p < 0.00001; ns = not significant. Here is the method: In vivo behavioral studies were conducted in Tcf4^+/− mutant and wildtype littermate control (WT) mice by Gen.DDI (Santiago, Chile). Littermate controls consist of the genotypes Tcf4^+/+. All Tcf4 mutant mice used were heterozygous for the Tcf4 mutation because homozygous mutations of Tcf4 result in embryonic to postnatal day 1 lethality. Ten mice per treatment group, 14 weeks of age, were used for behavioral experiments. Experiments were conducted in line with the requirements of the UK Animals (Scientific Procedures) Act, 1986. The mice were housed in plastic cages (35×30×12 cm), 5 in each and habituated to the animal facilities for at least a week before commencing the test. The room temperature (21° C.±2° C.), relative humidity (55%±5%), a 12-hour light-dark cycle (lights on 7 AM to 7 PM), and air exchange were automatically controlled. The animals had free access to commercial food pellets and water. Testing was performed during the light phase of the circadian cycle, with the order of testing being determined by the principle of conducting the most stressful tests last. Assays were designed to reproduce and expand on the original behavioral characterization of Tcf4^+/− mice. Tcf4^+/− and WT control mice were treated for 6 weeks prior to testing and tested 30 minutes following a dose of cG-2-AllylP, as described in Table 2 below.
The Open Field (OF) test is a combined test that is used to determine anxiety/hyperactivity, and for habituation to a novel environment, one of the most elementary forms of learning, in which decreased exploration as a function of repeated exposure to the same environment is taken as an index of memory. This is normally studied in two sessions of exposure to the open field, a 10-min and a 24 hr habituation session.
The device used for this study is a grey PVC enclosed arena 50×30 cm divided into 10 cm squares. Mice are brought to the experimental room 5-20 min before testing. A mouse is placed into a corner square facing the corner and observed for 3 min. The number of squares entered (whole body) and rears (both front paws off the ground, but not as part of grooming) are counted. The latency to the first rear is also noted. The movement of the mouse around the field was recorded with a video tracking device for 300 s (vNT4.0, Viewpoint). The latency for the mouse to enter the brightest, central part of the field total time spent in this central region, and total activity (in terms of path length in centimetres), were recorded.
The open field (OF) test is a test used to characterize explorative behavior, anxiety, and/or hypo- and hyperactivity in animals habituated to daily handling under novel and familiar conditions. During exposure to the open field mice will habituate to the environment and thus explore less, decreasing the amount movement they show over time.
In the present experiment, we recorded movement and rearing during an initial exposure (T1), during a second exposure after 10 minutes (T2) and during a third exposure after 24 hours (T3). Failures to reduce locomotion or rearing at 10 minutes and 24 hours indicate deficits in short- and long-term memory, respectively.
To evaluate whether cG-2-AllylP is effective to treat the hypoactivity in PTHS, we carried out Open Field studies. Lower scores on measures of open field locomotion were detected in Tcf4^+/− as compared to WT littermates, across the 30-minute test session.
The relative distance travelled is shown on the vertical axis, and the animals and their treatments are shown on the horizontal axis. Wild type (WT) mice treated with vehicle alone (left column) were considered to travel 100%. […] The effect of NNZ-2591 (cG-2-AllylP) were statistically significant.

Turning to `C=CC[C@]12CCCN1C(=O)CNC2=O` [cG-2-AllylP, (8aS)-Allyl-hexahydropyrrolo[1,2-a]pyrazine-1,4-dione], the “Open Field (Hypoactivity): Tukey’s Multiple Comparison Test Summary” value (shortened to “Open Field (Hypoactivity)”) is given as “ns” (Tcf4^+/− + cG-2-AllylP (100 mg/kg) vs Tcf4^+/− + cG-2-AllylP (200 mg/kg)); “ns” (Tcf4^+/− + cG-2-AllylP (100 mg/kg) vs WT + cG-2-AllylP (200 mg/kg)); “**** (**** = p < 0.00001)” (Tcf4^+/− + vehicle vs Tcf4^+/− + cG-2-AllylP 1 (200 mg/kg) [r21-22]); “**** (**** = p < 0.00001)” (Tcf4^+/− + vehicle vs Tcf4^+/− + cG-2-AllylP (100 mg/kg) [r23-24]); “**** (**** = p < 0.00001)” (Tcf4^+/− + vehicle vs Tcf4^+/− + cG-2-AllylP (200 mg/kg)); “**** (**** = p < 0.00001)” (Tcf4^+/− + vehicle vs WT + cG-2-AllylP (100 mg/kg)). Besides, the “Open Field (Hypoactivity)” value is, setting by setting: (WT + cG-2-AllylP (100 mg/kg) vs Tcf4^+/− + cG-2-AllylP (100 mg/kg)) “ns”; (WT + cG-2-AllylP (100 mg/kg) vs Tcf4^+/− + cG-2-AllylP (200 mg/kg)) “ns”; (WT + cG-2-AllylP (100 mg/kg) vs WT + cG-2-AllylP (200 mg/kg)) “ns”; (WT + cG-2-AllylP (200 mg/kg) vs Tcf4^+/− + cG-2-AllylP (200 mg/kg)) “ns”; (WT + vehicle vs Tcf4^+/− + cG-2-AllylP (100 mg/kg)) “ns”; (WT + vehicle vs Tcf4^+/− + cG-2-AllylP (200 mg/kg)) “ns”. The “Open Field (Hypoactivity)” value (WT + vehicle vs WT + cG-2-AllylP (100 mg/kg)) is “ns” and the “Open Field (Hypoactivity)” value (WT + vehicle vs WT + cG-2-AllylP (200 mg/kg)) is listed as “ns”. The “Behavior Normalized to WildType Levels: Open Field” value reads like this: (Tcf4^+/− mice, 100 mg/kg) “✓”; (Tcf4^+/− mice, 200 mg/kg) “✓”. For the same compound, the “Relative distance travelled (mobility), open field” value was “nearly identical mobility as did WT mice treated with vehicle alone” (Tcf4^+/− mice, 100 mg/kg oral BID 6 weeks); “normalized this mild to moderate hypoactivity” (Tcf4^+/− mice, 200 mg/kg oral BID 6 weeks); “slightly higher mobility than WT mice treated with vehicle” (WT mice, 100 mg/kg oral BID 6 weeks); “nearly the same mobility” (WT mice, 200 mg/kg oral BID 6 weeks).

These data come from patent US12472177B2, “Bicyclic compounds and methods for their use in treating Pitt Hopkins syndrome” (NEUREN PHARMACEUTICALS LIMITED, priority 2019, dated 2025).
